These results are taken from patent publication US12109187B2, “Antimicrobial compositions and related methods” (priority 2020, dated 2024).

Data set [1] concerns F. tularensis live vaccine strain (LVS). As to the kind of experiment: microbe, parasite or virus in culture. The class given is cell-based, Francisella tularensis.
The subject of another data set is F. tularensis LVS/pTC3D. The data set is classed as cell-based, Francisella tularensis.
A further data set deals with TNFα. The data set is classed as cell-based.
In the next data set the test system is MglA/SspA regulon. The class given is cell-based, Francisella tularensis LVS.
The subject of another data set is Acinetobacter baumannii. Also on record: species or system Galleria mellonella. The note with it: in vivo.
The subject of a further data set is A. baumannii. The class given is cell-based, Acinetobacter baumannii.
A further data set has as its system IglA. The data set is classed as cell-based, Francisella tularensis LVS.
For a further data set, the system named is IglC. The data set is classed as cell-based, Francisella tularensis LVS.
Another data set deals with LpnA. The class given is cell-based, Francisella tularensis LVS.
In a further data set the test system is F. tularensis LVS. The class given is cell-based, Francisella tularensis.

Structures are written as SMILES. Entries after “also recorded” stand apart in the source; their conditions may differ. A value given as a limit tells only on which side of the number the result lay.

Take `C=CCc1cc2c(c(OC)c1OC)OCO2` [dillapiole]: the “intracellular replication of F. tularensis LVS in THP-1 monocytes (CFU)” value in data set [1] was “sufficient to inhibit replication of F. tularensis”. In data set [1] (Francisella tularensis, read-out: minimum inhibitory concentration (MIC)), the MIC was under 7 µg/mL. In addition, in the data set with F. tularensis LVS/pTC3D, the “replication of F. tularensis in RAW 264.7 mouse macrophages” value is reported as “sufficient to inhibit replication of F. tularensis”. Besides, the TNFα production result with TNFα is listed as “decreased TNFα production”. Further, in the data set with MglA/SspA regulon, the “expression of virulence factors / genes controlled by MglA/SspA (incl. FPI genes)” value was “decrease in expression of several key virulence factors; also recorded: significantly decreased expression following treatment with dillapiole”. In the data set with Acinetobacter baumannii, the “rate of survival of infected wax worms” value is recorded as “significantly higher rate of survival”. For the same compound, the “A. baumannii viability in rich growth media” value in the data set on A. baumannii is reported as “did not diminish A. baumannii viability”. The IglA protein expression entry with IglA is “significant reduction”. Further, the IglC protein expression result in the data set on IglC is on record as “significant reduction”. For the same compound, in the data set with LpnA, the LpnA production entry is reported as “unaffected”. Besides, the “bacterial growth as determined by optical density” value in the data set with F. tularensis LVS is on record as “did not affect bacterial growth”. Moreover, the “toxicity to mammalian cells” value in the data set with mammalian cells is “not toxic to mammalian cells”.
